{
  "source": "patent US20090318526A1",
  "about": "“Use of cannabinoid receptor agonists as hypothermia inducing drugs for the treatment of ischemia” (priority 2006, published 2009)",
  "origin": "cited, not measured here",
  "system": "Sprague-Dawley rats",
  "details": "Leker et al. [37]",
  "data": [
    {"smiles": "CCCCCCC(C)(C)c1cc(O)c2c(c1)OC(C)(C)[C@@H]1CC=C(CO)C[C@@H]21", "note": "[HU-210, (−)-11-OH-delta-8-tetrahydrocannabinoldimethylheptyl]", "values": [
      {"measurement": "induction of hypothermia", "setting": "Sprague-Dawley rats", "result": "did provide hypothermia"},
      {"measurement": "protection against ischemic damages", "setting": "Sprague-Dawley rats", "result": "protection against ischemic damages"},
      {"measurement": "side effects due to the treatment", "setting": "rats", "result": "hemodynamic and behavioural side effects"}
    ]}
  ]
}
